The values below are quoted from earlier work in patent US10981928B2, “Methods of making low odor choline salts of an organic compound” (HALO LIFE SCIENCE, LLC, priority 2016, dated 2021).

Structures are written as SMILES. Values after ≈ are worked out from the molar mass of the structure shown.

The conditions of data set [1]: comparison value.
The conditions of data set [2]: PEG 400 at 37° C.; comparison value.

On to `O=c1oc2c(O)c(O)cc3c(=O)oc4c(O)c(O)cc1c4c23` [ellagic acid], for which, in data set [1], the solubility in water is about 4 µg/mL (≈ 0.0132 mM). Moreover, the “solubility in PEG 400” value in data set [2] is 8000 µg/mL (≈ 26.5 mM).
